Our source for the IC50 values is patent US5091392A, “Substituted (quinolin-2-yl-methoxy)phenyl-acyl-sulphon-amides and -cyanamides, processes for their preparation and their use in medicaments” (Bayer Aktiengesellschaft, priority 1989, dated 1992).

This experiment concerns lipoxygenase. Kind of experiment: lipoxygenase inhibition: release of leucotriene B4 (LTB4) from polymorphonuclear rat leucocytes (PMNL) after Ca ionophore, reverse phase HPLC. The following applies: LTB4 release from polymorphonuclear rats leucocytes (PMNL), read-out: LO inhibition IC50. The class given is cell-based. On the procedure:
The pharmacological activity data of the substances according to the invention are determined by the following method: As a measure of the lipoxygenase inhibition, the release of leucotriene B4 (LTB4) from polymorphonuclear rats leucocytes (PMNL) was determined after addition of substances and Ca ionophore by means of reverse phase HPLC according to Borgeat, P. et al., Proc. Nat. Acad. Sci., 76, 2148-2152 (1979). The in vivo activity of the compounds was detected using the mouse ear inflammation model according to Young, J. M. et al., J. of Investigative Dermatology, 82, 367-371 (1984).

The term IC50 denotes the concentration that inhibits the measured activity by half. Turning to `CS(=O)(=O)NC(=O)C(c1ccc(OCc2ccc3ccccc3n2)cc1)C1CCCC1` (stereo not drawn) [Example 1], the IC50 was found to be 27 nM.

For the molecule `N#CNC(=O)C(c1ccc(OCc2ccc3ccccc3n2)cc1)C1CCCC1` (stereo not drawn) [Example 7, N-{1-[4-(Quinolin-2-yl-methoxy)phenyl]-1-cyclopentyl}-acetyl-cyanamide], the IC50 stood at 24 nM. The result for `CN(C(=O)C(c1ccc(OCc2ccc3ccccc3n2)cc1)C1CCCC1)S(=O)(=O)C(F)(F)F` (stereo not drawn) [Example 6, N-Methyl-N-{1-[4-(quinolin-2-yl-methoxy)phenyl]-1-cyclopentyl-acetyl}-trifluoromethanesulphonamide] reads 33 nM.
